From patent US20220388972A1, “CHROMAN-4-ONE DERIVATIVES FOR THE TREATMENT AND PROPHYLAXIS OF HEPATITIS B VIRUS INFECTION” (Hoffmann-La Roche Inc., priority 2018, published 2022)

System: HBV cccDNA (HBeAg as surrogate marker) in HepDES19 cells
Experiment: Engineered HepDES19 primary screen assay (HBeAg as surrogate marker for cccDNA)
Assay type: cell-based
Settings: Hepatitis B virus, HepDES19, 120 h
Description: The assay was employed to screen for cccDNA inhibitors. HepDES19 is a cccDNA-producing cell line. In this cell line, HBeAg in the cell culture supernatant as surrogate marker, as HBeAg production depends on cccDNA level and activity. HepDES19 is an engineered cell line which contains a 1.1 unit length HBV genome, and pgRNA transcription from the transgene is controlled by Tetracycline (Tet). In the absence of Tet, pgRNA transcription will be induced, but HBV e antigen (HBeAg) could not be produced from this pgRNA due to very short leader sequence before the HBeAg start codon and the start codon is disrupted. Only after cccDNA is formed, the missing leader sequence and start codon mutation would be restored from the 3′-terminal redundancy of pgRNA, and then HBeAg could be synthesized. Therefore, HBeAg could be used as a surrogate marker for cccDNA (Zhou, T. et al., Antiviral Res. (2006), 72 (2), 116-124; Guo, H. et al., J. Virol. (2007), 81 (22), 12472-12484).
HepDES19 cells were seeded at 2×10^6 cells per T150 flask and cultured with the culture medium (Dulbecco's Modified Eagle Medium: Nutrient Mixture F-12 [DMEM-F12, Gibco Cat. 11320-82], 10% Fetal Bovine Serum [FBS, Clontech Cat. 631101], 0.1 mM Non-Essential Amino Acids Solution [NEAA, Gibco Cat. 11140-050], 50 μg/mL Penicillin-Streptomycin [PS, Invitrogen Cat. 15140-163], 500 μg/mL Geneticin [G418, Invitrogen Cat. 10131-027]) containing 3 μg/mL Tet (Sigma, Cat. 87128) for 5 days. Cells were then seeded at 4×10^6 cells per T150 in the same culture medium as described above in the absence of Tet for 8 days. Cells were then harvested and frozen at density of 2×10^6 cells per mL. For compound testing, the frozen cells were thawed and seeded into 96-well plates at a density of 6×10^4 cells per well. At 24 hours after seeding, half log serial dilutions of compounds made with Dimethyl sulfoxide (DMSO, Sigma, Cat. D2650) were further diluted with the same culture medium as described above before they were added to the cells to reach desired final compound concentrations and 1% DMSO concentration. Plates were then incubated at 37° C. for another 5 days before measurement of HBeAg level and cell viability. Intracellular HBeAg level were measured with enzyme-linked immunosorbent assay (ELISA) kit (Shanghai Kehua Diagnostic Medical Products Co., Ltd). Cell viability was assessed using Cell Counting Kit-8 (DonJindo, Cat. CK04-20). IC50 values were derived from the dose-response curve using 4 parameters logistic curve fit method.
The compounds of the present invention were tested for their capacity to inhibit extracellular HBeAg level as described herein.

Structure (SMILES)	IC50
COc1cc(C2CC(=O)c3cccc(Cl)c3O2)c(OCCC(=O)O)cc1Cl (stereo not shown) [Example 10, 3-[5-chloro-2-(8-chloro-4-oxo-chroman-2-yl)-4-methoxy-phenoxy]propanoic Acid]	11.4 µM
CCNS(=O)(=O)N[C@H](COc1cc(C(F)(F)F)ccc1[C@@H]1CC(=O)c2cccc(Cl)c2O1)C(=O)O [Example 31-A, (2R)-3-[2-[(2S)-8-chloro-4-oxo-chroman-2-yl]-5-(trifluoromethyl)phenoxy]-2-(ethylsulfamoylamino)propanoic acid]	3.3 µM
CC(C)(COc1cc(C(F)(F)F)ccc1C1CC(=O)c2cccc(Cl)c2O1)C(=O)O (stereo not shown) [Example 19, 3-[2-(8-chloro-4-oxo-chroman-2-yl)-5-(trifluoromethyl)phenoxy]-2,2-dimethyl-propanoic Acid]	0.26 µM
O=C(O)CCOc1cc(C(F)(F)F)ccc1C1CC(=O)c2c(O)ccc(Cl)c2O1 (stereo not shown) [Example 6, 3-[2-(8-chloro-5-hydroxy-4-oxo-chroman-2-yl)-5-(trifluoromethyl)phenoxy]propanoic Acid]	5.22 µM
Cc1cc(C2CC(=O)c3cccc(Cl)c3O2)c(OC2CC(C(=O)O)C2)cc1Cl (stereo not shown) [Example 18, 3-[5-chloro-2-(8-chloro-4-oxo-chroman-2-yl)-4-methyl-phenoxy]cyclobutanecarboxylic Acid]	0.765 µM
O=C1CC(c2ccc(C(F)(F)F)cc2OCCO)Oc2c1ccc(F)c2Cl (stereo not shown) [Example 34, 8-chloro-7-fluoro-2-[2-(2-hydroxyethoxy)-4-(trifluoromethyl)phenyl]chroman-4-one]	3.36 µM
O=C(O)CCOc1cc(OC(F)(F)F)c(Br)cc1C1CC(=O)c2cccc(Cl)c2O1 (stereo not shown) [Example 15, 3-[4-bromo-2-(8-chloro-4-oxo-chroman-2-yl)-5-(trifluoromethoxy)phenoxy]propanoic Acid]	1.5 µM
O=C(O)CCOc1cc(Br)ccc1[C@@H]1CC(=O)c2cccc(Cl)c2O1 [Example 16-A, 3-[5-bromo-2-[(2S)-8-chloro-4-oxo-chroman-2-yl]phenoxy]propanoic Acid]	2.43 µM
COc1cc(C2CC(=O)c3cccc(Cl)c3O2)c(OCCC(=O)O)cc1Br (stereo not shown) [Example 8, 3-[5-bromo-2-(8-chloro-4-oxo-chroman-2-yl)-4-methoxy-phenoxy]propanoic Acid]	11.3 µM
COCCCOc1cc(C(F)(F)F)ccc1C1CC(=O)c2ccc(F)c(Cl)c2O1 (stereo not shown) [Example 32, 8-chloro-7-fluoro-2-[2-(3-methoxypropoxy)-4-(trifluoromethyl)phenyl]chroman-4-one]	1.93 µM
COc1ccc2c(c1Cl)OC(c1ccc(C(F)(F)F)cc1OCCC(=O)O)CC2=O (stereo not shown) [Example 4, 3-[2-(8-chloro-7-methoxy-4-oxo-chroman-2-yl)-5-(trifluoromethyl)phenoxy]propanoic Acid]	5.25 µM
O=C(O)COCCCOc1cc(C(F)(F)F)ccc1C1CC(=O)c2cccc(Cl)c2O1 (stereo not shown) [Example 23, 2-[3-[2-(8-chloro-4-oxo-chroman-2-yl)-5-(trifluoromethyl)phenoxy]propoxy]acetic Acid]	1.56 µM
NS(=O)(=O)N[C@H](COc1cc(C(F)(F)F)ccc1[C@@H]1CC(=O)c2cccc(Cl)c2O1)C(=O)O [Example 30-A, (2R)-3-[2-[(2S)-8-chloro-4-oxo-chroman-2-yl]-5-(trifluoromethyl)phenoxy]-2-(sulfamoylamino)propanoic Acid]	3.37 µM
COc1cc(OCCC(=O)O)c(C2CC(=O)c3cccc(Cl)c3O2)cc1C (stereo not shown) [Example 9, 3-[2-(8-chloro-4-oxo-chroman-2-yl)-5-methoxy-4-methyl-phenoxy]propanoic Acid]	9.41 µM
Cc1ccc(C2CC(=O)c3cccc(Cl)c3O2)c(OCCCOCC(=O)O)c1 (stereo not shown) [Example 22, 2-[3-[2-(8-chloro-4-oxo-chroman-2-yl)-5-methyl-phenoxy]propoxy]acetic Acid]	1.99 µM
Cc1cc(C2CC(=O)c3cccc(Cl)c3O2)c(OCCC(=O)O)cc1Br (stereo not shown) [Example 7, 3-[5-bromo-2-(8-chloro-4-oxo-chroman-2-yl)-4-methyl-phenoxy]propanoic Acid]	9.41 µM
